Data as given in ChEMBL document CHEMBL1629617, “IncA/C plasmid-mediated florfenicol resistance in the catfish pathogen Edwardsiella ictaluri” (2009).
Converted amounts (≈) assume the structure as drawn.

Assays:
Type in all cases: functional
[1] = tested on: Edwardsiella ictaluri; experiment: Antimicrobial activity against florfenicol-resistant Edwardsiella ictaluri M07-1 by microdilution assay
[2] = tested on: Escherichia coli; experiment: Antimicrobial activity against Escherichia coli ATCC […] by microdilution assay
[3] = tested on: Escherichia coli; experiment: Antimicrobial activity against Escherichia coli ATCC […] carrying Edwardsiella ictaluri pM07-1 by microdilution assay
[4] = tested on: Edwardsiella ictaluri; experiment: Fold resistance, ratio of MIC for florfenicol-resistance Edwardsiella ictaluri M07-1 to MIC for florfenicol-susceptible Edwardsiella ictaluri

## CN[C@@H]1[C@H](O[C@H]2[C@H](O[C@H]3[C@H](O)[C@@H](O)[C@H](N=C(N)N)[C@@H](O)[C@@H]3N=C(N)N)O[C@@H](C)[C@]2(O)C=O)O[C@@H](CO)[C@H](O)[C@H]1O [STREPTOMYCIN]
[1]
  MIC: > 64 µg/mL
[2]
  MIC: < 32 µg/mL
[3]
  MIC: > 64 µg/mL

## O=C(O)[C@H]1/C(=C/CO)O[C@@H]2CC(=O)N21 [CLAVULANIC ACID]
[1]
  MIC: 16 µg/mL (≈ 80.3 µM)
[2]
  MIC: 2 µg/mL (≈ 10 µM)
[3]
  MIC: 16 µg/mL (≈ 80.3 µM)

## CC1(C)S[C@@H]2[C@H](NC(=O)[C@H](N)c3ccccc3)C(=O)N2[C@H]1C(=O)O [AMPICILLIN]
[1]
  MIC: > 32 µg/mL
[2]
  MIC: 4 µg/mL (≈ 11.4 µM)
[3]
  MIC: > 32 µg/mL

## CO[C@@]1(NC(=O)Cc2cccs2)C(=O)N2C(C(=O)O)=C(COC(N)=O)CS[C@@H]21 [CEFOXITIN]
[1]
  MIC: > 32 µg/mL
[2]
  MIC: 4 µg/mL (≈ 9.36 µM)
[3]
  MIC: > 32 µg/mL

## COc1cc(Cc2cnc(N)nc2N)cc(OC)c1OC [TRIMETHOPRIM]
[1]
  MIC: 1 µg/mL (≈ 3.44 µM)
[2]
  MIC: 0.1 µg/mL (≈ 0.344 µM)
[3]
  MIC: 1 µg/mL (≈ 3.44 µM)

## O=C(N[C@H](CO)[C@H](O)c1ccc([N+](=O)[O-])cc1)C(Cl)Cl [CHLORAMPHENICOL]
[1]
  MIC: > 32 µg/mL
[2]
  MIC: 4 µg/mL (≈ 12.4 µM)
[3]
  MIC: > 32 µg/mL

## CO/N=C(\C(=O)N[C@@H]1C(=O)N2C(C(=O)O)=C(CSC(=O)c3ccco3)CS[C@H]12)c1csc(N)n1 [CEFTIOFUR]
[1]
  MIC: 8 µg/mL (≈ 15.3 µM)
[2]
  MIC: 0.5 µg/mL (≈ 0.955 µM)
[3]
  MIC: > 8 µg/mL

## Cc1cc(NS(=O)(=O)c2ccc(N)cc2)no1 [SULFAMETHOXAZOLE]
[1]
  MIC: 19 µg/mL (≈ 75 µM)
[2]
  MIC: 2.4 µg/mL (≈ 9.48 µM)
[3]
  MIC: 19 µg/mL (≈ 75 µM)

## CS(=O)(=O)c1ccc([C@@H](O)[C@@H](CF)NC(=O)C(Cl)Cl)cc1 [FLORFENICOL]
[1]
  MIC: 128 µg/mL (≈ 357 µM)
[2]
  MIC: 4 µg/mL (≈ 11.2 µM)
[3]
  MIC: 256 µg/mL (≈ 715 µM)
[4]
  Ratio: 500

## CC1(C)S[C@@H]2[C@H](NC(=O)[C@H](N)c3ccc(O)cc3)C(=O)N2[C@H]1C(=O)O [AMOXICILLIN]
[1]
  MIC: > 32 µg/mL
[2]
  MIC: 4 µg/mL (≈ 10.9 µM)
[3]
  MIC: > 32 µg/mL

## CN(C)[C@@H]1C(O)=C(C(N)=O)C(=O)[C@@]2(O)C(O)=C3C(=O)c4c(O)cccc4[C@@](C)(O)[C@H]3C[C@@H]12 [TETRACYCLINE]
[1]
  MIC: 32 µg/mL (≈ 72 µM)
[2]
  MIC: 4 µg/mL (≈ 9 µM)
[3]
  MIC: 32 µg/mL (≈ 72 µM)

## CO/N=C(\C(=O)N[C@@H]1C(=O)N2C(C(=O)O)=C(CSc3nc(=O)c(O)nn3C)CS[C@H]12)c1csc(N)n1 [CEFTRIAXONE]
[1]
  MIC: 32 µg/mL (≈ 57.7 µM)
[2]
  MIC: < 0.25 µg/mL
[3]
  MIC: 32 µg/mL (≈ 57.7 µM)
